# US5804576A, “Derivatives of 5-androsten-17-ones and 5-androstan-17-ones” (Research Corporation Technologies, Inc., priority 1986, dated 1998)
# What was measured:
# [1] = biological target: T1, purified bovine adrenal G6PDH (Bos taurus, UniProt F1MMK2); assay: Inhibition of purified bovine adrenal G6PDH; format: biochemical; settings: for G6PDH Inhibition relative to DHEA: Table 3, DHEA = 1×; for inhibition at 10 µM / inhibition at 1 µM / inhibition at 0.1 µM: read-out: Percent Inhibition (G6PDH)
# T1 construct: full-length, wild type, no tag
# T1 sequence (F1MMK2 31-70): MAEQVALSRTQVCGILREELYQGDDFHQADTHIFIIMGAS
# T1 sequence (F1MMK2 101-575): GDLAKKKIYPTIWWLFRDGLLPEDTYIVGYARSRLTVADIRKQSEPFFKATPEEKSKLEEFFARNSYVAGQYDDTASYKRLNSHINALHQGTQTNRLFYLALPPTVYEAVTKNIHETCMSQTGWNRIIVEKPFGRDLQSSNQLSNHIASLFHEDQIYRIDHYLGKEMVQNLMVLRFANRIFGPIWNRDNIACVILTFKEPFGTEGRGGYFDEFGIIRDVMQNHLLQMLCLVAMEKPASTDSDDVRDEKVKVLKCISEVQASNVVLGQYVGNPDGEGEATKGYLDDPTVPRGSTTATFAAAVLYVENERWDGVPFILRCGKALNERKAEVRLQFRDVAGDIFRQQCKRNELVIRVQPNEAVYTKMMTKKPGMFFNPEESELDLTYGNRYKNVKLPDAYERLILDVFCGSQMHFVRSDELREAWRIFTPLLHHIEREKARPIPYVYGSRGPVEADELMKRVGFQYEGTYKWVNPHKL
# Source text: The compounds listed below are screened as inhibitors of purified bovine adrenal G6PDH activity as one predictor of cancer preventive action. The assay for testing the inhibition of purified bovine adrenal G6PDH is according to the procedure by Oertel, G. W. and Rebelein, I. in Biochem. Biophys. Acta, 184, 459-460 (1969). The results are given below in Table I:
# Both of the above tests, i.e., the inhibition of mammalian glucose-6-phosphate dehydrogenase (G6PDH) and the inhibition of tumor promoter (TPA) stimulation of ^3 H-thymidine incorporation in mouse epidermis are recognized as indicators of cancer prophylactic activity. The following Table compares the efficacy of representative compounds of the present invention in these two tests with that of DHEA: […]
# [2] = test system: TPA (Tumor Promoter) Stimulation of Mouse Epidermal DNA; assay: Inhibition of TPA stimulation of mouse epidermal DNA synthesis (3H-thymidine incorporation), oral; format: in vivo, mouse (ICR male); settings: Table 3; DHEA = 1×; oral
# Source text: Synthesis rate by orally administered steroids.
# The inhibition of tumor promoter stimulation of mouse epidermal DNA synthesis rate by steroids may also contribute to cancer preventive activity. The following assay is used:
# ICR male mice (7-9 weeks old) were shaved on the back 1-2 days before use. Only mice showing no hair regrowth were used. Animals were orally intubated with a particular steroid suspended by homogenization in sesame oil or with sesame oil alone (controls). One hour later TPA (10 μg in 0.2 ml of acetone) or acetone vehicle was applied topically to the shaved skin. Twenty hours later, mice were injected i.p. with 60 μCi of ^3 H-thymidine 20 minutes before sacrifice. The animals were killed by cervical dislocation and the residual hair was removed with a depilatory agent. Epidermal scrapings were prepared according to the procedures of Hennings et al. (Cancer Res. 28, 53, 1968), homogenized in distilled water at 4° C., and the macromolecules precipitated with 0.4N trichloroacetic acid (TCA). Following 6 washes with absolute ethanol at room temperature, the nucleic acids were hydrolyzed with 0.5N TCA at 70° C. for 5 minutes. The hydrolysate (0.2 ml aliquots) were counted in an Intertechnique scintillation counter and assayed for DNA by the diphenylamine reaction.
# The data are expressed as counts per minute (cpm) of tritium per μg of DNA.
# A similar oral dose-response experiment with compound 16 and DHEA was performed.
# Both of the above tests, i.e., the inhibition of mammalian glucose-6-phosphate dehydrogenase (G6PDH) and the inhibition of tumor promoter (TPA) stimulation of ^3 H-thymidine incorporation in mouse epidermis are recognized as indicators of cancer prophylactic activity. The following Table compares the efficacy of representative compounds of the present invention in these two tests with that of DHEA:
# (§1) Male ICR mice were orally intubated with steroid suspended in sesame oil (0.5 ml/mouse) at the indicated dose. Mice not receiving steroid were given sesame oil alone. One hour later mice received topical application of TPA and 20 hours later the rate of ^3 H-thymidine incorporation into the epidermis was determined as described in Table 4.
# as §1, with “TPA,” for “TPA”
# [3] = Anti-obesity test (body weight, food consumption); format: in vivo, mouse (male A/J); settings: Table 14; DHEA = 1×
# Method: Male A/J mice (5 weeks old) were obtained from the Jackson Laboratory and were housed in polycarbonate cages (5 mice/cage) in animal quarters maintained at 24°±1° C. with 12 hours of light and 12 hours of darkness each day. One week after arrival, the mice were placed on a chow diet containing varying concentrations of DHEA or other steroid. Animals were weighed weekly; food consumption was determined weekly by subtracting the amount of food remaining in the cage from the amount added.
# Male A/J (5 weeks old) were obtained from the Jackson Laboratory and were housed in polycarbonate cages (5 mice/cage) in animal quarters maintained at 24°±1° C. with 12 hours of light and 12 hours of darkness each day. One week after arrival, the mice were placed on a diet containing either DHEA, 19, or without steroid. Animals were weighed weekly. The concentration of DHEA or 19 used in the food was 0.54%.
# Male A/J mice (5 weeks old) were obtained from the Jackson Laboratory and were housed in polycarbonate cages (5 mice/cage) in animal quarters maintained at 24°±1° C. with 12 hours of light and 12 hours of darkness each day. One week after arrival, the mice were placed on a show diet containing DHEA, 16, or 21 at 0.36%. Animals were weighed weekly.
# [4] = test system: C57BL/KsJ-db/db mice; assay: Anti-hyperglycemic activity (blood glucose); format: in vivo, mouse (C57BL/KsJ-db/db); settings: Table 15; DHEA = 1×
# Method: C57BL/KsJ-db/db 8 week old female mice were obtained and housed in polycarbonate cages in animal quarters maintained at 24° C. with 12 h of light and 12 h of darkness each day.
# Mice were placed on a control chow or a chow diet containing either 0.4% DHEA or 0.2% of compound 16.
# For determination of blood glucose levels, mice were bled from the orbital sinus using a heparinized capillary tube. 0.2 ml of blood was added to 1.8 ml of water to hemolyze the blood and glucose concentration was determined using the glucose oxidase assay.
compound,measurement,setting,value
C[C@@H]1C[C@@]2(C)C(=CC[C@@H]3[C@@H]2CC[C@]2(C)C(=O)CC[C@@H]32)C[C@H]1O,G6PDH Inhibition relative to DHEA,[1],~ 1 ×
C[C@]12CC[C@H](O)C[C@@H]1CC[C@@H]1[C@@H]2CC[C@]2(C)C(=O)[C@H](Br)C[C@@H]12 [Compound 4],inhibition at 10 µM,[1]; Conc. 10 μm,90%
C[C@]12CC[C@H](O)CC1=CC[C@@H]1[C@@H]2CC[C@]2(C)C(=O)[C@H](Br)C[C@@H]12 [Compound 5],inhibition at 10 µM,[1]; Conc. 10 μm,74%
C[C@]12CC[C@H](O)C[C@@H]1CC[C@@H]1[C@@H]2CC[C@]2(C)C(=O)[C@H](Cl)C[C@@H]12 [Compound 6],inhibition at 10 µM,[1]; Conc. 10 μm,72%
C[C@]12CC[C@H](O)C[C@@H]1CC[C@@H]1[C@@H]2CC[C@]2(C)C(=O)[C@H](I)C[C@@H]12 [Compound 7],inhibition at 10 µM,[1]; Conc. 10 μm,51%
C[C@]12CC[C@H](O)C[C@@H]1CC[C@@H]1[C@@H]2CC[C@]2(C)C(=O)[C@H](F)C[C@@H]12 [Compound 8],inhibition at 10 µM,[1]; Conc. 10 μm,66%
C[C@]12CC[C@H](F)CC1=CC[C@@H]1[C@@H]2CC[C@]2(C)C(=O)CC[C@@H]12 [Compound 9],inhibition at 10 µM,[1]; Conc. 10 μm,22%
C[C@]12CC[C@@H](O)C[C@@H]1CC[C@@H]1[C@@H]2CC[C@]2(C)C(=O)CC[C@@H]12 [Compound 10],inhibition at 10 µM,[1]; Conc. 10 μm,35%
C[C@@H]1[C@H](O)CC[C@@]2(C)[C@H]1CC[C@@H]1[C@@H]2CC[C@]2(C)C(=O)CC[C@@H]12 [Compound 11],inhibition at 10 µM,[1]; Conc. 10 μm,35%
C[C@H]1C2=CC[C@@H]3[C@H](CC[C@]4(C)C(=O)CC[C@@H]34)[C@@]2(C)CC[C@@H]1O [Compound 11a],inhibition at 1 µM,[1]; Conc. 1 μm,72%
same,inhibition at 10 µM,[1]; Conc. 10 μm,87%
CC1(C)C2=CC[C@@H]3[C@H](CC[C@]4(C)C(=O)CC[C@@H]34)[C@@]2(C)CC[C@@H]1O [Compound 12],inhibition at 10 µM,[1]; Conc. 10 μm,48%
CC[C@H]1CC[C@@]2(C)C(=CC[C@@H]3[C@@H]2CC[C@]2(C)C(=O)CC[C@@H]32)C1 [Compound 13],inhibition at 0.1 µM,[1]; Conc. 0.1 μm,58%
same,inhibition at 1 µM,[1]; Conc. 1 μm,55%
same,inhibition at 10 µM,[1]; Conc. 10 μm,73%
C[C@]12CCCCC1=CC[C@@H]1[C@@H]2CC[C@]2(C)C(=O)CC[C@@H]12 [Compound 14],inhibition at 1 µM,[1]; Conc. 1 μm,30%
same,inhibition at 10 µM,[1]; Conc. 10 μm,75%
CCCC[C@H]1CC[C@@]2(C)C(=CC[C@@H]3[C@@H]2CC[C@]2(C)C(=O)CC[C@@H]32)C1 [Compound 17],inhibition at 0.1 µM,[1]; Conc. 0.1 μm,49%
same,inhibition at 1 µM,[1]; Conc. 1 μm,45%
same,inhibition at 10 µM,[1]; Conc. 10 μm,60%
CC1=C2C[C@@H](O)CC[C@]2(C)[C@H]2CC[C@]3(C)C(=O)CC[C@H]3[C@@H]2C1 [Compound 18],inhibition at 0.1 µM,[1]; Conc. 0.1 μm,10%
same,inhibition at 1 µM,[1]; Conc. 1 μm,18%
same,inhibition at 10 µM,[1]; Conc. 10 μm,45%
C[C@H]1CC[C@@]2(C)C(=CC[C@@H]3[C@@H]2CC[C@]2(C)C(=O)[C@](C)(F)C[C@@H]32)C1 [Compound 22],inhibition at 1 µM,[1]; Conc. 1 μm,53%
same,inhibition at 10 µM,[1]; Conc. 10 μm,65%
C[C@]12CC[C@H](O)C[C@@H]1CC[C@@H]1[C@@H]2CC[C@]2(C)C(=O)CC[C@@H]12 [drawing 85],G6PDH Inhibition relative to DHEA,[1],~ 1.5 ×
same,"Inhibition of TPA Effect on Epidermis Following Oral Administration, relative to DHEA",[2],~ 1 ×
C[C@]12CCCC[C@@H]1CC[C@@H]1[C@@H]2CC[C@]2(C)C(=O)CC[C@@H]12 [drawing 86],G6PDH Inhibition relative to DHEA,[1],> 2 ×
same,"Inhibition of TPA Effect on Epidermis Following Oral Administration, relative to DHEA",[2],~ 1.5 ×
C[C@H]1CC[C@@]2(C)C(=CC[C@@H]3[C@@H]2CC[C@]2(C)C(=O)CC[C@@H]32)C1 [drawing 87],G6PDH Inhibition relative to DHEA,[1],~ 1 ×
same,"Inhibition of TPA Effect on Epidermis Following Oral Administration, relative to DHEA",[2],~ 3 ×
C[C@H]1CC[C@@]2(C)C(=CC[C@@H]3[C@@H]2CC[C@]2(C)C(=O)[C@H](C)C[C@@H]32)C1 [drawing 88],G6PDH Inhibition relative to DHEA,[1],~ 0.5 ×
C[C@H]1CC[C@@]2(C)C(=CC[C@@H]3[C@@H]2CC[C@]2(C)C(=O)[C@H](O)C[C@@H]32)C1 [drawing 89],G6PDH Inhibition relative to DHEA,[1],~ 2 ×
same,"Inhibition of TPA Effect on Epidermis Following Oral Administration, relative to DHEA",[2],5 ×
C[C@]12CC[C@H](Cl)CC1=CC[C@@H]1[C@@H]2CC[C@]2(C)C(=O)CC[C@@H]12 [drawing 90],G6PDH Inhibition relative to DHEA,[1],0.5 ×
same,"Inhibition of TPA Effect on Epidermis Following Oral Administration, relative to DHEA",[2],1-1.5 ×
CC[C@H]1CC[C@@]2(C)C(=CC[C@@H]3[C@@H]2CC[C@]2(C)C(=O)CC[C@@H]32)C1 [drawing 91],G6PDH Inhibition relative to DHEA,[1],~ 1.5 ×
CCCC[C@H]1CC[C@@]2(C)C(=CC[C@@H]3[C@@H]2CC[C@]2(C)C(=O)CC[C@@H]32)C1 [drawing 92],G6PDH Inhibition relative to DHEA,[1],~ 2 ×
C[C@H]1CC[C@@]2(C)C(=CC[C@@H]3[C@@H]2CC[C@]2(C)C(=O)[C@H](F)C[C@@H]32)C1 [drawing 94],G6PDH Inhibition relative to DHEA,[1],5-10 ×
same,"Inhibition of TPA Effect on Epidermis Following Oral Administration, relative to DHEA",[2],> 10 ×
C[C@]12CC[C@H](O)C[C@@H]1CC[C@@H]1[C@@H]2CC[C@]2(C)C(=O)CC[C@@H]12 [drawing 95],Anti-obesity Activity relative to DHEA,[3],~ 0.5 ×
C[C@]12CCCC[C@@H]1CC[C@@H]1[C@@H]2CC[C@]2(C)C(=O)CC[C@@H]12 [drawing 96],Anti-obesity Activity relative to DHEA,[3],~ 0.5 ×
C[C@H]1CC[C@@]2(C)C(=CC[C@@H]3[C@@H]2CC[C@]2(C)C(=O)CC[C@@H]32)C1 [drawing 97],Anti-obesity Activity relative to DHEA,[3],~ 3 ×
C[C@H]1CC[C@@]2(C)C(=CC[C@@H]3[C@@H]2CC[C@]2(C)C(=O)[C@H](O)C[C@@H]32)C1 [drawing 98],Anti-obesity Activity relative to DHEA,[3],~ 0.8 ×
C[C@H]1CC[C@@]2(C)C(=CC[C@@H]3[C@@H]2CC[C@]2(C)C(=O)[C@H](C)C[C@@H]32)C1 [drawing 99],Anti-obesity Activity relative to DHEA,[3],~ 1 ×
C[C@]12CC[C@H](Cl)CC1=CC[C@@H]1[C@@H]2CC[C@]2(C)C(=O)CC[C@@H]12 [drawing 100],Anti-obesity Activity relative to DHEA,[3],~ 1 ×
CC[C@H]1CC[C@@]2(C)C(=CC[C@@H]3[C@@H]2CC[C@]2(C)C(=O)CC[C@@H]32)C1 [drawing 101],Anti-obesity Activity relative to DHEA,[3],~ 0.5 ×
C[C@H]1CC[C@@]2(C)C(=CC[C@@H]3[C@@H]2CC[C@]2(C)C(=O)CC[C@@H]32)C1 [drawing 102],Anti-diabetic Activity relative to DHEA,[4],3 ×
C[C@]12CC[C@H](Cl)CC1=CC[C@@H]1[C@@H]2CC[C@]2(C)C(=O)CC[C@@H]12 [drawing 103],Anti-diabetic Activity relative to DHEA,[4],1 ×
"Androst-5-en-17-one [Compound 15, reference compound]",Percent Inhibition (G6PDH),[1]; Conc. 0.1 μm,26%
same,Percent Inhibition (G6PDH),[1]; Conc. 1 μm,40%
same,Percent Inhibition (G6PDH),[1]; Conc. 10 μm,46%
